Experimental data as given in patent US6469166B2, “Thiophenopyrimidines” (Neurocrine Biosciences, Inc., priority 1996, dated 2002).

Molecular target: T1, human CRF receptors (Homo sapiens, UniProt P34998)
T1 construct: expressed in transfected cells; a membrane suspension of the stably transfected cells was used
T1 sequence (P34998 24-415): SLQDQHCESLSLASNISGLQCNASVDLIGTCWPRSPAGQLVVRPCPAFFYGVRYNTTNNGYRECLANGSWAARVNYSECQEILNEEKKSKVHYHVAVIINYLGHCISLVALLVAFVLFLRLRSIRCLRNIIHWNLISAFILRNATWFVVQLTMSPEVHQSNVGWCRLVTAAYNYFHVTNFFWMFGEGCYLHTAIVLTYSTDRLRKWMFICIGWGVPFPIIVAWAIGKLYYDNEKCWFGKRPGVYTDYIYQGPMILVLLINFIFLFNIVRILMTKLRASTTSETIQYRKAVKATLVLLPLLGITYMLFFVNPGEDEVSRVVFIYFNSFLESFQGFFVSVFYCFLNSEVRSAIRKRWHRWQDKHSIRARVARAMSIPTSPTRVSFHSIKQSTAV
Assay: CRF receptor radioligand binding assay ([125I] tyrosine-ovine CRF displacement)
Conditions: compounds found to show the best score in this test
Protocol: Compounds were evaluated for binding activity to the CRF receptor by a standard radioligand binding assay as generally described by DeSouza et al. (J. Neutrosci. 7:88-100, 1987). By utilizing various radiolabeled CRF ligands, the assay may be used to evaluate the binding activity of the compounds of the present invention with any CRF receptor subtype. Briefly, the binding assay involves the displacement of a radiolabeled CRF ligand from the CRF receptor. More specifically, the binding assay was performed in 1.5 ml Eppendorf tubes using approximately 1×10^6 cells per tube stably transfected with human CRF receptors. Each tube received about 0.1 ml of assay buffer (e.g., Dulbecco's phosphate buffered saline, 10 mM magnesium chloride, 20 μM bacitracin) with or without unlabeled sauvagine, urotensin I or CRF (final concentration, 1 μM) to determine nonspecific binding, 0.1 ml of [^125I] tyrosine-ovine CRF (final concentration ˜200 pM or approximately the KD as determined by Scatchard analysis) and 0.1 ml of a membrane suspension of cells containing the CRF receptor. […] Following two washes of the pellets, the tubes were cut just above the pellet and monitored in a gamma counter for radioactivity at approximately 80% efficiency. All radioligand binding data were analyzed using a non-linear least-square curve-fitting program. […]

score in the CRF receptor binding test: best score
SMILES: CCCN(CCC)c1nc(C)nc2c(-c3c(C)cc(C)cc3C)csc12 [Compound 1, 2-methyl-6-(N,N-dipropylamino)-8-(2,4,6-trimethylphenyl)-thiopheno[3,2-d]pyrimidine]
